In patent US8802439B2, “Methods for enhancing infectivity of retroviruses” (priority 2009, dated 2014):
Entries after “also recorded” stand apart in the source; their conditions may differ.

Experiments:
SIV-GFP = assay: Infectivity of SIV-GFP virions (RT-normalized), GFP fluorescence via FACS; type: cell-based
Experimental: 293T cells were transfected with HIV-1-GFP, SIV-GFP, bMLV-GFP, and nMLV-GFP proviral constructs, and in each case CMV-VSV-G, in the presence or absence of PiB or excess Pin1 as described above. Released virions were normalized via RT assay (EnzChek® Reverse Transcriptase Assay Kit), and infectivity on naïve TZMb1 cells was analyzed by GFP fluorescence via FACS (% cells infected).
Infection assays for retrovirus: Single-round infections: CD4^+ TZM-bl 100,000 cells/well/mL were seeded onto 24-well plates 24 hours prior to infection. These cells were infected in quadruplicate to 24-well plates. Infectivity was scored using an enzymatic galactosidase activity assay. Specifically, infected TZM-bl cells were washed and lysed, and 20 μl of lysate was transferred to a 96-well plate for detecting β-galactosidase activity. 100 μl of reaction buffer Galacton-Star substrate (Applied Biosystems, Bedford, Mass.), diluted 1:50, was added to 20 μl of lysate, and the light emission was measured over 1 second in a microplate luminometer after 30 minutes incubation. For human PBMC infections, cells were exposed to 10 ng of wild-type virus for 6 hours, washed, and split into two flasks: one with 10 μM PiB added on day 0 and 3, and one without PiB. Replication was monitored by p24 ELISA. For measuring infectivity of GFP-virus, 50,000 TZMb1, sMAGI, OMK, Vero, BSC-1 and CV-1 cells/well/mL were seeded onto 6-well plates respectively 24 hours prior to infection. Viruses were used to infect in duplicate wells, incubated for 48 hours, washed with PBS, trypsinized, fixed in 1% formaldehyde and subsequently analyzed by fluorescence-activated cell sorting (FACS) for percentage cells infected.
[…]. In brief, 293T cells were transfected with a SIV-GFP (Mac293), a CMV driven plasmid encoding VSV-G envelope protein alone, or in the presence of 2.0 μM PiB, 10.0 μM PiB, 20.0 μM PiB, or 40.0 μM PiB. […] Infectivity was measured as GFP fluorescence via FACS. […]
We then examined effect of Pin blocking in non-human primate producer cells on viral infectivity. […] Infectivity was analyzed by GFP fluorescence via FACS. […]

HCV = HCV infectivity titer of supernatants from persistently infected HUH-7 cells; type: cell-based; settings: PiB 16 μM and 8 μM, 1 hour pre-treatment plus 9 hours at 37° C.
Experimental: (§1) Cells persistently infected with HCV were treated with vehicle (DMSO), an MTP inhibitor (BMS-200150) capable of inhibiting HCV secretion, or with two doses of PiB (16 μM and 8 μM). After 1 hour of pre-treatment at 37° C., cells were washed with warm PBS and further incubated in normal medium containing the same drugs for an additional 9 hours at 37° C. Cell supernatants containing infectious HCV were collected for infectivity titer determination.
as §1, with “Infection assays for HCV: Persistently” for “Cells persistently”, “cells” for “with HCV”, “inhibitors” for “drugs”, “determination. […] Note that Pin1 is able to block HIV-1 in the HUH-7 cell line used to propagate HCV.” for “determination.”
Persistently infected HUH-7 cells were treated with solvent DMSO (circles), or increasing concentrations of PiB (squares). After 1 hour of pre-treatment cells were washed and further incubated in normal medium containing the same inhibitors for an additional 9 hours at 37° C. Cell supernatants containing infectious HCV were collected for infectivity titer determination.

`CCOC(=O)CN1C(=O)c2ccc3c4c(ccc(c24)C1=O)C(=O)N(CC(=O)OCC)C3=O` [PiB, diethyl-1,3,6,8-tetrahydro-1,3,6,8-tetraoxobenzo[lmn][3,8]phenanthroline-2,7-diacetate] was tested, and the “infectivity of VSV-G pseudotyped macaque SIV-GFP” value (SIV-GFP; produced in 293T with 2.0, 10.0, 20.0 or 40.0 μM PiB) was “enhanced infectivity in a dose dependent manner”, the “boost of SIV-GFP infectivity” value (SIV-GFP; produced in 293T with PiB, TZMb1 cells) was 1.5 fold and the “infectivity of SIV produced in non-human primate cells” value (SIV-GFP; sMAGI, Vero, CV-1 (b135 also OMK) producer cells, human TZM/reporter cells) was “enhanced infectivity”. The “infectious HCV in cell supernatants (infectivity titer)” value (HCV) was “does not enhance HCV infectivity; also recorded: does not enhance replication”.
